The source of these data is patent US12122761B2, “2-azaspiro[3.4]octane derivatives as M4 agonists” (NOVARTIS AG, priority 2019, dated 2024).

Experiment [1] deals with T1, human cloned CHRM4 receptor (M4_CHO cells) (Homo sapiens, UniProt P08173).
T1 construct: expressed in transfected cells; host or cells: CHO-K1
T1 sequence (P08173 1-479): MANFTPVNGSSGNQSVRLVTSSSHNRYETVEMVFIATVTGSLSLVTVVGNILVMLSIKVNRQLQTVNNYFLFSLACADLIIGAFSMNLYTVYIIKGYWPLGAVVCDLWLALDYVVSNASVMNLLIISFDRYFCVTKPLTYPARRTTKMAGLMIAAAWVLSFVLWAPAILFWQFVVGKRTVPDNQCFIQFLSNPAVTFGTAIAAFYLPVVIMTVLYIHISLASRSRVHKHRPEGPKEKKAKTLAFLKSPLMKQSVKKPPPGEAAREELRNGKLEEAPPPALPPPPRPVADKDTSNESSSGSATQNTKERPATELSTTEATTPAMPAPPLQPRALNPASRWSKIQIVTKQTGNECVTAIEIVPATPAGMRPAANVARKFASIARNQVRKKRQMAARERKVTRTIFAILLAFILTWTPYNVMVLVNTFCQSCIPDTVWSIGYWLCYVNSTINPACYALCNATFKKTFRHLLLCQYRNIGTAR
Nature of the experiment: CHRM4 Ca++ Flux Assay (agonist mode, FDSS 7000EX). It counts as cell-based. As to conditions: for M4 FDSS PA / Emax: Percent Activity; for EC50: geometric mean if tested more than once, read-out: M4 FDSS EC50; for Emax: read-out: M4 FDSS PA. An outline of the steps: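 Agonist-mode response was expressed as percent of the Carbachol EC100 and fitted with four-parameter nonlinear regression over an 11-point triplicate dose series. Intracellular Ca++ was tracked for 3 min by fluorescent dye in CHO-K1 cells stably expressing human CHRM4. Cells were preincubated 60 min with 20 μM ATP in buffer containing 2.5 mM probenecid.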

In experiment [2] the target is T2, human cloned CHRM2 receptor (M2_CHO cells) (Homo sapiens, UniProt P08172).
T2 construct: expressed in transfected cells; host or cells: CHO-K1
T2 sequence (P08172 1-466): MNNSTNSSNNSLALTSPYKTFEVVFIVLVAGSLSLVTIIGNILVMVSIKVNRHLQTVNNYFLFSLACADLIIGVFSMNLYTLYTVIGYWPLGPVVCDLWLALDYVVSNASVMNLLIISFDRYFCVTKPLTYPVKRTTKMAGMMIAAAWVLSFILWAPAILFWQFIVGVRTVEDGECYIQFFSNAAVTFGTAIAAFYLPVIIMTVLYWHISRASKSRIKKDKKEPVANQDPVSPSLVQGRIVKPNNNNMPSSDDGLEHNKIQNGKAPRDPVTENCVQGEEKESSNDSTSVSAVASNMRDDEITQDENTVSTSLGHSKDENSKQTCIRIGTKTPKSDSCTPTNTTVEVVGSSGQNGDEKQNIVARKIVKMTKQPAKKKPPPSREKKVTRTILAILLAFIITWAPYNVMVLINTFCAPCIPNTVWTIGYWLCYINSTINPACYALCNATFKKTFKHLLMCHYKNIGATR
The experiment in a line: CHRM2 Ca++ Flux Assay (agonist mode, FDSS 7000EX). The experiment is classed as cell-based. As to conditions: for M2 FDSS PA / Emax: Percent Activity measured to EC100 of Carbachol; for EC50: agonist mode, geometric mean if tested more than once, read-out: M2 FDSS EC50; for Emax: read-out: M2 FDSS PA. A digest of the protocol: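 Response expressed as percent activity versus the Carbachol EC100, with curves fitted by four-parameter non-linear regression of triplicates. Stable M2_CHO cells were Ca++ dye-loaded and preincubated 60 min at room temperature in assay buffer containing 20 μM ATP; signal imaged for 3 minutes after compound.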

For `Fc1ccc(OC2CC3(COC3)C2)c(C2CCN([C@@H]3CCC4(C3)CN(c3cncnc3)C4)CC2)c1` (single isomer, unassigned) [Example 10E, (R)-6-(4-(2-((2-oxaspiro[3.3]heptan-6-yl)oxy)-5-fluorophenyl)piperidin-1-yl)-2-(pyrimidin-5-yl)-2-azaspiro[3.4]octane or (S)-6-(4-(2-((2-oxaspiro[3.3]heptan-6-yl)oxy)-5-fluorophenyl)piperidin-1-yl)-2-(pyrimidin-5-yl)-2-azaspiro[3.4]octane], in experiment [1], the “M4 FDSS PA” value amounted to 59% and the EC50 amounted to 0.027 µM. In addition, in experiment [2], the “M2 FDSS PA” value is on record as 11% and the EC50 is 3.99 µM.
In the case of `CC(C)(O)CCOc1ccccc1C1CCN([C@@H]2CCC3(C2)CN(C(=O)C2(F)CC2)C3)CC1` (single isomer, unassigned) [Example 7BB, (R)-(1-fluorocyclopropyl)(6-(4-(2-(3-hydroxy-3-methylbutoxy)phenyl)piperidin-1-yl)-2-azaspiro[3.4]octan-2-yl)methanone or (S)-(1-fluorocyclopropyl)(6-(4-(2-(3-hydroxy-3-methylbutoxy)phenyl)piperidin-1-yl)-2-azaspiro[3.4]octan-2-yl)methanone], in experiment [1], the “M4 FDSS PA” value turned out to be 38% and the EC50 was found to be 0.002 µM. In addition, the “M2 FDSS PA” value in experiment [2] was 0%.
The matching figures for `O=C(N1CC2(CC[C@@H](N3CCC(c4cc(F)ccc4OC4CCOCC4)CC3)C2)C1)C1(F)CC1` (single isomer, unassigned) [Example 9C, (R)-(6-(4-(5-fluoro-2-((tetrahydro-2H-pyran-4-yl)oxy)phenyl)piperidin-1-yl)-2-azaspiro[3.4]octan-2-yl)(1-fluorocyclopropyl)methanone or (S)-(6-(4-(5-fluoro-2-((tetrahydro-2H-pyran-4-yl)oxy)phenyl)piperidin-1-yl)-2-azaspiro[3.4]octan-2-yl)(1-fluorocyclopropyl)methanone]: 54%, 0.001 µM and 0%.
In the case of `COc1ccc(Cl)cc1C1CCN([C@@H]2CCC3(C2)CN(c2ccnnc2)C3)CC1` [Example 5P, (R)-6-(4-(5-chloro-2-methoxyphenyl)piperidin-1-yl)-2-(pyridazin-4-yl)-2-azaspiro[3.4]octane], the Emax in experiment [1] came to 55%; in experiment [2] it was 16%. Also, the EC50 in experiment [1] stood at 0.043 µM.
On to `FC(F)(F)Oc1ccccc1C1CCN([C@@H]2CCC3(C2)CN(c2nncs2)C3)CC1` (single isomer, unassigned) [Example 10N, (R)-2-(6-(4-(2-(trifluoromethoxy)phenyl)piperidin-1-yl)-2-azaspiro[3.4]octan-2-yl)-1,3,4-thiadiazole or (S)-2-(6-(4-(2-(trifluoromethoxy)phenyl)piperidin-1-yl)-2-azaspiro[3.4]octan-2-yl)-1,3,4-thiadiazole], for which, in experiment [1], the “M4 FDSS PA” value was 1% and the EC50 is over 25 µM. Further, in experiment [2], the “M2 FDSS PA” value came to 28%.
For `COc1ccccc1C1CCN([C@@H]2CCC3(C2)CN(c2ncns2)C3)CC1` (single isomer, unassigned) [Example 10R, (R)-5-(6-(4-(2-methoxyphenyl)piperidin-1-yl)-2-azaspiro[3.4]octan-2-yl)-1,2,4-thiadiazole or (S)-5-(6-(4-(2-methoxyphenyl)piperidin-1-yl)-2-azaspiro[3.4]octan-2-yl)-1,2,4-thiadiazole], in that order: 36%, 0.122 µM and 0%.
The matching figures for `Cc1noc(C)c1COc1ccccc1C1CCN([C@@H]2CCC3(C2)CN(C(=O)C2(F)CC2)C3)CC1` (single isomer, unassigned) [Example 7U, (R)-(6-(4-(2-((3,5-dimethylisoxazol-4-yl)methoxy)phenyl)piperidin-1-yl)-2-azaspiro[3.4]octan-2-yl)(1-fluorocyclopropyl)methanone or (S)-(6-(4-(2-((3,5-dimethylisoxazol-4-yl)methoxy)phenyl)piperidin-1-yl)-2-azaspiro[3.4]octan-2-yl)(1-fluorocyclopropyl)methanone]: 1%, over 25 µM and 0%.
The matching figures for `FC(F)Oc1ccccc1C1CCN([C@@H]2CCC3(C2)CN(c2nncs2)C3)CC1` (single isomer, unassigned) [Example 10O, (R)-2-(6-(4-(2-(difluoromethoxy)phenyl)piperidin-1-yl)-2-azaspiro[3.4]octan-2-yl)-1,3,4-thiadiazole or (S)-2-(6-(4-(2-(difluoromethoxy)phenyl)piperidin-1-yl)-2-azaspiro[3.4]octan-2-yl)-1,3,4-thiadiazole]: 67%, 0.001 µM and 17%.
Regarding `CCOc1ccccc1C1CCN([C@@H]2CCC3(C2)CN(C(=O)C2(F)CC2)C3)CC1` (single isomer, unassigned) [Example 7S, (R)-(6-(4-(2-ethoxyphenyl)piperidin-1-yl)-2-azaspiro[3.4]octan-2-yl)(1-fluorocyclopropyl)methanone or (S)-(6-(4-(2-ethoxyphenyl)piperidin-1-yl)-2-azaspiro[3.4]octan-2-yl)(1-fluorocyclopropyl)methanone], in experiment [1], the “M4 FDSS PA” value was 26% and the concentration for a half-maximal effect (EC50) was found to be 2.65 µM. In addition, the “M2 FDSS PA” value in experiment [2] is on record as 0%.
The matching figures for `O=C(N1CC2(CC[C@@H](N3CCC(c4ccccc4OC4CC5(COC5)C4)CC3)C2)C1)C1(F)CC1` (single isomer, unassigned) [Example 11C, (R)-(6-(4-(2-((2-oxaspiro[3.3]heptan-6-yl)oxy)phenyl)piperidin-1-yl)-2-azaspiro[3.4]octan-2-yl)(1-fluorocyclopropyl)methanone or (S)-(6-(4-(2-((2-oxaspiro[3.3]heptan-6-yl)oxy)phenyl)piperidin-1-yl)-2-azaspiro[3.4]octan-2-yl)(1-fluorocyclopropyl)methanone]: 47%, 0.002 µM and 0%.
The matching figures for `Cc1ncc(COc2ccccc2C2CCN([C@@H]3CCC4(C3)CN(C(=O)C3(F)CC3)C4)CC2)o1` (single isomer, unassigned) [Example 7V, (R)-(1-fluorocyclopropyl)(6-(4-(2-((2-methyloxazol-5-yl)methoxy)phenyl)piperidin-1-yl)-2-azaspiro[3.4]octan-2-yl)methanone or (S)-(1-fluorocyclopropyl)(6-(4-(2-((2-methyloxazol-5-yl)methoxy)phenyl)piperidin-1-yl)-2-azaspiro[3.4]octan-2-yl)methanone]: 23%, 0.353 µM and 0%.
Turning to `Fc1ccc(C2CCOCC2)c(C2CCN([C@@H]3CCC4(C3)CN(c3cncnc3)C4)CC2)c1` (single isomer, unassigned) [Example 10C, (R)-6-(4-(5-fluoro-2-(tetrahydro-2H-pyran-4-yl)phenyl)piperidin-1-yl)-2-(pyrimidin-5-yl)-2-azaspiro[3.4]octane or (S)-6-(4-(5-fluoro-2-(tetrahydro-2H-pyran-4-yl)phenyl)piperidin-1-yl)-2-(pyrimidin-5-yl)-2-azaspiro[3.4]octane], in experiment [1], the “M4 FDSS PA” value was found to be 62% and the EC50 was under 0.0004 µM. In experiment [2], the “M2 FDSS PA” value stood at 30% and the EC50 was determined as 0.035 µM.
Consider `COc1ccccc1C1CCN([C@@H]2CCC3(C2)CN(c2ccnnc2)C3)CC1` [Example 5S, (R)-6-(4-(2-methoxyphenyl)piperidin-1-yl)-2-(pyridazin-4-yl)-2-azaspiro[3.4]octane], for which, in experiment [1], the Emax turned out to be 55% and the EC50 came out at 0.129 µM. The Emax in experiment [2] was 0%.

Usually EC50 stands for the concentration that produces a half-maximal response.
